# Results published in patent US20070161550A1, “Antiviral compositions which inhibit paramyxovirus infection” (priority 2003, published 2007).
# B1: CCL15: recombinant human chemokine CCL15 (MIP-1δ) (protein, UniProt Q16663 22-113, looked up)
# C-C motif chemokine 15: QFTNDAETELMMSKLPLENPVVLNSFHFAADCCTSYISQSIPCSLMKSYFETSSECSKPGVIFLTKKGRQVCAKPSGPGVQDCMKKLKPYSI
# B2: CCL4: recombinant human chemokine CCL4 (MIP-1β) (protein, UniProt P13236 24-92, looked up)
# C-C motif chemokine 4: APMGSDPPTACCFSYTARKLPRNFVVDYYETSSLCSQPAVVFQTKRSKQVCADPSESWVQEYVYDLELN
# B3: CCL3: recombinant human chemokine CCL3 (MIP-1α) (protein, UniProt P10147 24-92, looked up)
# C-C motif chemokine 3: SLAADTPTACCFSYTSRQIPQNFIADYFETSSQCSKPGVIFLTKRSRQVCADPSEEWVQKYVSDLELSA
# B4: CCL8: recombinant human chemokine CCL8 (MCP-2) (protein, UniProt P80075 24-99, looked up)
# C-C motif chemokine 8: QPDSVSIPITCCFNVINRKIPIQRLESYTRITNIQCPKEAVIFKTKRGKEVCADPKERWVRDSMKHLDQIFQNLKP
# Assays:
# RSV A2 [1] = assay: Inhibition of virus infectivity in vivo, lung virus titers in BALB/c mice; conditions: for reduced infectivity, fold: co-administration with RSV (Table 16); for inhibition of RSV infection in vivo (in words): BALB/c mouse model
# Protocol: Inhibition of virus infectivity in vivo. […] All administrations were intranasal (0.05 ml) and performed under injected anesthesia (60 mg ketamine/kg and 2.5 mg xylazine/kg (The Butler Co.; Dublin Ohio)). Four days later the lungs were removed, homogenized, clarified by low speed centrifugation, snap frozen, and stored at −70° C. until plaque assays were performed using HEp-2 cell monolayers (Hancock et al. 1996). All animals were housed in a facility accredited by the American Association for Accreditation of Laboratory Animal Care.
# (§1) Plaque assay. Virus plaques were visualized as previously described (Hancock et al. 1996) using anti-F protein (L4) mAb (Paradiso et al., 1991; Walsh and Hruska, 1983). Thereafter, cells were rinsed with blotto blocking agent (PBS, 5% powdered milk) and incubated with horseradish peroxidase-conjugated goat anti-mouse IgG (Kirkegaard and Perry Laboratories, Inc.; Gaithersburg, Md.). Bound antibody was detected using 0.05% 4-chloro-1-naphtol containing 0.1% H2O2 in PBS. After enumeration of plaques, the mean percent infectivity (±1 standard deviation of triplicate wells) was calculated relative to monolayers exposed to virus in culture medium alone without chemokine or anti-chemokine receptor antibody.
# RSV A2 [2] = assay: Inhibition of RSV infectivity in vitro, plaque assay on HEp-2 cell monolayers; type: cell-based, respiratory syncytial virus (RSV); conditions: for effect on RSV infectivity (in words): prior exposure (1 hour) of HEp-2 cells to recombinant chemokine, up to 10 μg/ml
# Protocol: Inhibition of virus infectivity in vitro. HEp-2 cell monolayers were grown in 96-well tissue culture plates (Falcon, Becton Dickson and Co.; Franklin Lakes, N.J.) with complete medium. The monolayers were pre-treated for 1 hour at 4° C. or 37° C. in triplicate wells with the indicated amounts of recombinant chemokine or anti-chemokine receptor antibody. After removal of chemokine or antibody, the monolayers were infected 1 hour at the same temperature with the denoted wild type or mutant RSV strain and then overlaid with 2% Sephadex (Amersham Biosciences; Piscataway, N.J.). Anti-viral activity was also assessed 1 hour after the cells were infected, or following simultaneous exposure of the monolayers to virus in a 1:1 mixture with the indicated doses of chemokines or CCL5 peptides. The inhibitory properties of the anti-chemokine receptor antibodies were tested alone or in combination at doses ranging from 5 to 100 μg/ml culture medium.
# as §1
# HEp-2 cells = assay: Binding of biotinylated CCL5 peptides to HEp-2 cell monolayers (ELISA); parameters: species or system human; conditions: FIG. 3, viable HEp-2 cells at 4° C.
# Protocol: Interaction of CCL5 peptides with HEp-2 cells. An ELISA was used to assess the relative binding of synthetic peptides to HEp-2 cell monolayers. In brief, 96-well plates (Falcon) were seeded with 3×10^4 HEp-2 cells per well in 0.2 ml of complete medium. After overnight incubation (37° C., 5% CO2), the monolayers were cooled on ice for approximately 15 minutes. The biotinylated peptides were added to duplicate wells in ascending doses from 0.49 μg to 500 μg per ml DMEM (supplemented with 1% FBS, 2% penicillin/streptomycin, and 2 mM L-glutamine) and incubated at 4° C. for 1 hour. The monolayers were then fixed (20 minutes at RT) with 80% methanol (J T Baker; Phillipsburg, N.J.). […] Thereafter, the monolayers were incubated (1 hour at RT) with streptavidin-HRP (Zymed; San Francisco, Calif.). The wells were developed with TMB One-Step Substrate Solution (DAKO; Carpinteria, Calif.). Optical density was determined (450 nm, reference at 550 nm) with a Molecular Devices Versamax microplate reader (Sunnyvale, Calif.).
# [3] = Table 16 Exp. 1, 500 μg/dose, simultaneously admixed with RSV A2, intranasal, lungs four days later
# [4] = all experiments at the 500 μg/dose
# [5] = Table 10, 1 μg/ml, exposed 1 hour before infection, plaques after 3 days
# [6] = Table 10, 5 μg/ml, exposed 1 hour before infection, plaques after 3 days
# [7] = Table 10, 10 μg/ml, exposed 1 hour before infection, plaques after 3 days, relative to control wells (100%)
# [8] = Table 16 Exp. 1, 250 μg/dose, simultaneously admixed with RSV A2, four days
# [9] = Table 17, 500 μg, Simultaneous with RSV A2, four days
# [10] = Table 12, 10 μg/ml, 1 hour after removal of RSV A2 (POST)
# [11] = Table 12, 10 μg/ml, 1 hour prior to infection (PRE)
# [12] = Table 11, 1 μg/ml, exposed 1 hour before infection, plaques after 3 days
# [13] = Table 11, 5 μg/ml, exposed 1 hour before infection, plaques after 3 days
# [14] = Table 11, 10 μg/ml, exposed 1 hour before infection, plaques after 3 days
molecule,measurement,setting,value
"CANPEKKWVREYINS (listed as Homo sapiens) [Peptide 8, CCL5 amino acids 50-64]",RSV/Gram Lung Tissue (log10),RSV A2 [1]; [3],3.6 ± 0.03 log10
same,average reduction in virus load,RSV A2 [1]; [4],1.0 log10
same,"reduced infectivity, fold",RSV A2 [1],approximately 10 fold
CCL11: recombinant human chemokine CCL11 (eotaxin),Percent Infectivity,RSV A2 [2]; [5],94.4 ± 4.8%
same,Percent Infectivity,RSV A2 [2]; [6],93.1 ± 12.7%
same,Percent Infectivity,RSV A2 [2]; [7],94.4 ± 4.8%
same,effect on RSV infectivity (in words),RSV A2 [2],did not impair RSV infectivity
"TPCCFAYIARPLPRA (listed as Homo sapiens) [Peptide 2, CCL5 amino acids 8-22]",average reduction in virus load,RSV A2 [1]; [4],0.9 log10
"EKKWVREYINSLEMS (listed as Homo sapiens) [Peptide 9, CCL5 amino acids 54-68]",RSV/Gram Lung Tissue (log10),RSV A2 [1]; [8],3.7 ± 0.1 log10
same,average reduction in virus load,RSV A2 [1]; [4],1.4 log10
same,"reduced infectivity, fold",RSV A2 [1],approximately 10 fold
"AHIKEYFYTSGKCSN (listed as Homo sapiens) [Peptide 4, CCL5 amino acids 22-36]",average reduction in virus load,RSV A2 [1]; [4],1.2 log10
"NC(=O)CN(CC(N)=O)S(=O)(=O)c1cccc(Nc2nc(Nc3cccc(S(=O)(=O)N(CC(N)=O)CC(N)=O)c3)nc(Nc3ccc(-c4ccc(Nc5nc(Nc6cccc(S(=O)(=O)N(CC(N)=O)CC(N)=O)c6)nc(Nc6cccc(S(=O)(=O)N(CC(N)=O)CC(N)=O)c6)n5)cc4S(=O)(=O)O)c(S(=O)(=O)O)c3)n2)c1 [RFI-641, reference compound]",inhibition of RSV infection in vivo (in words),RSV A2 [1],inhibitory against RSV infection
same,RSV/Gram Lung Tissue (log10),"RSV A2 [1]; Table 16 Exp. 1, 25 μg/dose, simultaneously admixed with RSV A2, four days",2.7 ± 0.2 log10
same,RSV/Gram Lung Tissue (log10),"RSV A2 [1]; Table 16 Exp. 2, 25 μg/dose, simultaneously admixed with RSV A2, four days",2.7 ± 0.3 log10
"PAVVFVTRKNRQVC (listed as Homo sapiens) [Peptide 6, CCL5 amino acids 37-50]",average reduction in virus load,RSV A2 [1]; [4],0.5 log10
"SPYSSDTTPCCFAYI (listed as Homo sapiens) [Peptide 1, CCL5 amino acids 1-15]",average reduction in virus load,"RSV A2 [1]; 300 μg or more, five experiments",2.4 log10
same,inhibition of RSV infection in vivo (in words),RSV A2 [1],most inhibitory in vivo
same,RSV/Gram Lung Tissue (log10),"RSV A2 [1]; Table 16 Exp. 1, 125 μg/dose, simultaneously admixed with RSV A2, four days",4.6 ± 0.2 log10
same,RSV/Gram Lung Tissue (log10),RSV A2 [1]; [8],4.3 ± 0.2 log10
same,RSV/Gram Lung Tissue (log10),RSV A2 [1]; [3],1.8 ± 0.1 log10
same,RSV/Gram Lung Tissue (log10),"RSV A2 [1]; Table 16 Exp. 2, 300 μg/dose, simultaneously admixed with RSV A2, four days",4.0 ± 0.1 log10
same,RSV/Gram Lung Tissue (log10),"RSV A2 [1]; Table 16 Exp. 2, 400 μg/dose, simultaneously admixed with RSV A2, four days",3.8 ± 0.1 log10
same,RSV/Gram Lung Tissue (log10),"RSV A2 [1]; Table 16 Exp. 2, 500 μg/dose, simultaneously admixed with RSV A2, four days",3.1 ± 0.1 log10
same,RSV/Gram Lung Tissue (log10),"RSV A2 [1]; Table 17, 500 μg, 1 hour after infection (Post), four days",5.3 ± 0.2 log10
same,RSV/Gram Lung Tissue (log10),"RSV A2 [1]; Table 17, 500 μg, 1 hour before infection (Pre), four days",3.5 ± 0.6 log10
same,RSV/Gram Lung Tissue (log10),RSV A2 [1]; [9],1.9 ± 0.2 log10
same,"virus load diminished, fold",RSV A2 [1]; administered 1 hour before infection,more than 50 fold
same,binding to the epithelial cell monolayer (in words),HEp-2 cells,readily bound to the epithelial cell monolayer
"TRKNRQVCANPEKKW (listed as Homo sapiens) [Peptide 7, CCL5 amino acids 43-57]",RSV/Gram Lung Tissue (log10),RSV A2 [1]; [3],4.6 ± 0.1 log10
same,RSV/Gram Lung Tissue (log10),RSV A2 [1]; [9],3.8 ± 0.1 log10
same,average reduction in virus load,RSV A2 [1]; [4],1.1 log10
B1,Percent Infectivity,RSV A2 [2]; [10],93 ± 4%
same,Percent Infectivity,RSV A2 [2]; [11],97 ± 8%
same,effect on RSV infectivity (in words),RSV A2 [2],did not impair RSV infectivity
B2,Percent Infectivity,RSV A2 [2]; [12],104.0 ± 4.0%
same,Percent Infectivity,RSV A2 [2]; [13],99.0 ± 9.0%
same,Percent Infectivity,RSV A2 [2]; [14],98.0 ± 5.0%
same,effect on RSV infectivity (in words),RSV A2 [2],did not impair infectivity
B3,Percent Infectivity,RSV A2 [2]; [5],95.8 ± 11.0%
same,Percent Infectivity,RSV A2 [2]; [6],97.2 ± 8.7%
same,Percent Infectivity,RSV A2 [2]; [7],86.1 ± 2.4%
same,Percent Infectivity,RSV A2 [2]; [12],103.0 ± 3.0%
same,Percent Infectivity,RSV A2 [2]; [13],98.0 ± 1.0%
same,Percent Infectivity,RSV A2 [2]; [14],91.0 ± 5.0%
same,Percent Infectivity,RSV A2 [2]; [10],104 ± 7%
same,Percent Infectivity,RSV A2 [2]; [11],91 ± 10%
same,effect on RSV infectivity (in words),RSV A2 [2],did not impair infectivity
B4,Percent Infectivity,RSV A2 [2]; [5],88.9 ± 6.4%
same,Percent Infectivity,RSV A2 [2]; [6],100.0 ± 0.0%
same,Percent Infectivity,RSV A2 [2]; [7],94.4 ± 10.5%
same,effect on RSV infectivity (in words),RSV A2 [2],did not impair RSV infectivity
